Data as given in patent US20180263940A1, “TREATMENT OF SKIN CONDITIONS” (priority 2015, published 2018).
“Also recorded” adds a separate entry of the source.

Experiments:
[1] = tested on: E16.5 embryonic back skin (Abca12 Lx12/Lx12 and Lx12/+); experiment: Harlequin Ichthyosis ex vivo embryo whole mount skin assay, cornified envelope thickening; assay type: cell-based, mouse; settings: 10 mM Mesalamine or 1 uM Acitretin, 4 days ex vivo
Method: Embryonic back skin was collected at E16.5 from across 3 litters generated by Abca12 Lx12/+ cross Abca12 Lx12/+ matings to generate Harlequin Ichthyosis embryos Abca12 Lx12/Lx12 and control siblings Abca12 Lx12/+ and Abca12+/+. The embryonic skin was then cultured 4 days on a porous membrane chamber insert with the epidermis exposed to air and dermis side in contact with media drawn through the porous membrane to permit maturation and adaptation to air. 10 mM Mesalamine or 1 uM Acitretin was supplied in the culture media and media refreshed at 48 hrs. Vehicle samples were left without drug treatment. Skins were then harvested on the 4th day and fixed in 4% PFA for 3-4 hrs then stored in 80% Ethanol until processed and embedded in paraffin wax. 8 micron sections were then cut and stained with Haematoxylin and Eosin and analysed. The percentage of skin thickness accounted for by the cornified envelope (cornified layer) was measured and results normalised as a fold change over the vehicle-treated control siblings in each assay. Wild type siblings were under represented in these litters so phenotypically normal heterozygote siblings were used as controls.

[2] = tested on: naturally parakeratotic tail scale skin; experiment: Ex vivo mouse tail scale assay; assay type: cell-based; settings: 4 days ex vivo
Method: 7-9 week old wild type mice of either gender were sacrificed and the tail skin tissue harvested then cultured 4 days on a porous membrane chamber insert with the epidermis exposed to air and dermis side in contact with media drawn through the porous membrane. Various concentrations and combinations of Mesalamine (2 mM and 5 mM) and Acitretin (1 μM) were added to the media or media alone used as a control. Media was refreshed after 48 hrs. Skins were then harvested on the 4 th day and fixed in 4% PFA overnight then stored in 80% Ethanol until processed and embedded in paraffin wax. 8 micron sections were then cut and stained with Haematoxylin and Eosin and analysed. Images were taken from at least 10 scales from 3 mice per treatment condition and the % orthokeratosis measured as defined in the figure legend for FIG. 13.

[3] = tested on: E18.5 embryonic mouse dorsal skin (Lx12/Lx12 HI mutant, Lx12/+, +/+); experiment: Ex vivo chamber assay of E18.5 embryonic mouse dorsal skin after HI disease acquisition, H&E; assay type: cell-based; settings: 4 days ex vivo
Method: Representative Haematoxylin and Eosin staining of embryonic mouse dorsal skin from two E18.5 litters, cultured ex vivo for 4 days on chamber inserts, with 1 or 10 mM mesalamine in standard culture media or vehicle alone is shown in FIG. 9. +/+ presents wild type skin. Lx12/Lx12 represents the HI mutant skin and Lx12/+ represents seemingly normal skin carrying the recessive HI mutant allele. Note once again the abnormality observed in the spinous layer, loss of the granular layer and proportional thickening of the stratum corneum in Lx12/Lx12 (HI) vehicle treated skins. Lx12/+ skins also appeared slightly abnormal relative to +/+ vehicle treated skins. […] Images are repeated in grayscale.

[4] = tested on: GRHL3 −/− epidermis; experiment: Ex vivo whole mount assay of GRHL3 -/- skin (proxy model of Lamellar Ichthyosis), cornified layer thickness; assay type: cell-based, mouse; settings: E16.5, 10 mM, 4 days ex vivo
Method: Embryonic back skin was collected at E16.5 from litters generated by GRHL3+/− cross Abca12 GRHL3+/− matings to generate Ichthyosis embryos GRHL3 −/− and control siblings GRHL3+/− and GRHL3+/+. The embryonic skin was then cultured 4 days on a porous membrane chamber insert with the epidermis exposed to air and dermis side in contact with media drawn through the porous membrane to permit maturation and adaptation to air. Skins were then harvested and fixed in 4% PFA for 3-4 hrs then stored in 80% Ethanol until processed and embedded in paraffin wax. 8 micron sections were then cut and stained with Haematoxylin and Eosin and analysed.

[5] = tested on: E16.5 embryonic mouse dorsal skin (Lx12/Lx12 HI mutant, Lx12/+, +/+); experiment: Ex vivo chamber assay of E16.5 embryonic mouse dorsal skin during Harlequin Ichthyosis (HI) disease acquisition, H&E and immunofluorescent staining; assay type: cell-based
Description: The mouse strain ‘Abca12^tm1Lex’ NIH-0129 was obtained from Lexicon genetics and are referred to herein as Abca12Lx12/Lx12, or simply Lx12/Lx12, mice. These mice have a puromycin selection cassette-mediated exon 8 disruption and recapitulate the features of HI akin to other Abca12 mutant strains. All animal procedures complied with standards set under Australian guidelines for animal welfare and experiments were subject to Monash University animal welfare ethics review panels.
Anti-cleaved caspase 3 (#9664P) 1:100 (IHC) Cell Signalling Technologies, USA. Anti-filaggrin (PRB-417P) 1: 1000 (IHC) Covance, USA. Anti-involucrin (PRB-140C) 1: 1000 (IHC) Covance, USA. Antikeratin 10 (PRB-159P) 1: 500 (IHC) Covance, USA. Antikeratin 10 (sc-23877) 1: 100 (IHC) Santa Cruz Biotechnology USA. Anti-keratin 14 (LL002) (ab7800) 1: 250-1000 (IHC) Abcam, UK. Anti-loricrin (PRB-145P) 1: 1000 (IHC) Covance, USA. Molecular Probes AlexaFluor A488 and 555 secondary antibodies raised in Donkey, against rabbit or mouse, were used at 1: 600, from Life Technologies. Nuclei stains used included DAPI (Sigma-Aldrich) 1: 1000. DAB staining was performed by the Monash Histology Platform using Leica autostainers and Dako products.
The ability of mesalamine to rescue the impaired differentiation in an HI mouse model, which represents an extremely severe inflammatory skin disease, was tested. Embryonic back skins at E16.5 were harvested from a litter containing wild type, heterozygous and HI embryos. The skin was divided into two pieces and each cultured for 4 days in a standard ex vivo chamber assay, where the skin rests dermis-side down on a chamber insert membrane and draws cell culture media up from the below well, forming an air face on the epidermis side and liquid face for the dermal side, similar to the normal skin environment. Mesalamine was added in the media of one of each pair of skins at 10 mM (the active concentration determined to have most impact in the gut for intestinal diseases).

[6] = tested on: E16.5 embryonic mouse dorsal skin (Lx12/Lx12 HI mutant, Lx12/+, +/+); experiment: as above; assay type: cell-based; settings: second E16.5 litter, 1 or 10 mM, 4 days ex vivo
[7] = Harlequin Ichthyosis (Lx12/Lx12) skins
[8] = control heterozygous Lx12/+ skins
[9] = Lx12/+ skin, 10 mM, 4 days ex vivo
[10] = Lx12/Lx12 skin, 10 mM, 4 days ex vivo

Structure (SMILES)	Cornified layer proportion of skin thickness [1, 7]	Cornified layer proportion of skin thickness [1, 8]	Orthokeratosis ([2]; 1 μM Acitretin)	Epidermis morphology (Haematoxylin and Eosin) ([3]; Lx12/Lx12 (HI) skin, E18.5, 1 mM)	Epidermis morphology (Haematoxylin and Eosin) ([3]; all genotypes, E18.5, 10 mM)	Cornified layer thickening [4]	Skin differentiation defects in HI ([5]; 10 mM in media, pair matched skins across genotypes)	Epidermis morphology (Haematoxylin and Eosin) ([5]; +/+ wild type skin, 10 mM, 4 days ex vivo)	Apoptosis (cleaved-Caspase-3 positive cells) ([5]; Lx12/+ and Lx12/Lx12 skin, 10 mM, 4 days ex vivo)	Granular layer Filaggrin (FLG) [5, 9]	Keratin 10 (K10) positive keratinocytes [5, 9]	Epidermis morphology (Haematoxylin and Eosin) ([5]; Lx12/Lx12 (HI) skin, 10 mM, 4 days ex vivo)	Granular layer Filaggrin (FLG) [5, 10]	Involucrin (INV) expression [5, 10]	Keratin 10 (K10) positive keratinocytes [5, 10]	Loricrin (LOR) expression [5, 10]	Epidermis morphology (Haematoxylin and Eosin) [6]	Orthokeratosis compared with 1 μM Acitretin ([2]; 2 mM Mesalamine)	Orthokeratosis ([2]; 2 mM and 5 mM Mesalamine in the culture medium)
COc1cc(C)c(/C=C/C(C)=C/C=C/C(C)=C/C(=O)O)c(C)c1C [Acitretin]	no significant effect	no significant effect	promoted orthokeratosis																
Nc1ccc(O)c(C(=O)O)c1 [Mesalamine, 5-aminosalicylic acid]	reduced the cornified layer proportion to vehicle control levels	reduced the thickness		acquires a more-normal appearance	reducing the keratinocytes accumulating in the spinous layers	reduced hyper-thickening of the cornified layer; also recorded: loss of thickening	significantly rescued	did not however appear to greatly effect	apoptosis is reduced	restored	revert to normal levels	acquires a more-normal appearance	partially restored	a more organised, and delayed (granular layer) expression	some modest improvement	a more normal, predominantly granular layer expression	acquires a more-normal appearance	performing similarly to 1 μM Acitretin	dose dependent increase in orthokeratosis
